# Tests used:
# Type in all cases: physicochemical
# [1] = Long-term stability of Temozolomide prepared by the process of the present invention, 2-8° C.; conditions: for AICA NMT 0.15% / Appearance (White to off-white powder) / Assay (HPLC) (98.0-102.0%) / Purity (HPLC) NLT 99.0% / Total impurities NMT 1.00% / Water content (KF), NMT 1.00%: process of the present invention, 2-8° C.
# Protocol: The Temozolomide was stable at temperature 2-8° C. for at least 18 months.
# [2] = Long-term stability of Temozolomide prepared by conventional method, 2-8° C.; conditions: for AICA NMT 0.15% / Appearance (White to off-white powder) / Assay (HPLC) (98.0-102.0%) / Individual unknown impurity NMT 0.10% / Purity (HPLC) NLT 99.0% / Total impurities NMT 1.00% / Water content (KF), NMT 1.00%: conventional method, 2-8° C.
# Protocol: The Temozolomide was stable at temperature 2-8° C.
# [3] = Accelerated stability of Temozolomide prepared by conventional method, 25° C. ± 2° C., 60% ± 5% RH; conditions: for AICA NMT 0.15% / Appearance (White to off-white powder) / Assay (HPLC) (98.0-102.0%) / Individual unknown impurity NMT 0.10% / Purity (HPLC) NLT 99.0% / Total impurities NMT 1.00% / Water content (KF), NMT 1.00%: conventional method, 25° C. ± 2° C., RH 60% ± 5%
# [4] = Long-term stability of Temozolomide prepared by the process of the present invention, 25° C. ± 2° C., 60% ± 5% RH; conditions: for AICA NMT 0.15% / Appearance (White to off-white powder) / Assay (HPLC) (98.0-102.0%) / Purity (HPLC) NLT 99.0% / Total impurities NMT 1.00% / Water content (KF), NMT 1.00% / AHX NMT 0.15% / Individual unknown impurity NMT 0.10%: process of the present invention, 25° C. ± 2° C., RH 60% ± 5%
# Text: The Temozolomide was stable at temperature 25 degree ° C. for at least 18 months.
smiles,measurement,setting,value
"Cn1nnc2c(C(N)=O)ncn2c1=O [Temozolomide, 8-carbamoyl-3-methyl-imidazo[5,1-d]-1,2,3,5-tetrazin-4(3H)-one]",Time stable,"[1]; prepared by the process of the present invention, temperature 2-8° C.",at least 18 months
same,AICA NMT 0.15%,[1]; 0 time,0.01%
same,Appearance (White to off-white powder),[1]; 0 time,White
same,Assay (HPLC) (98.0-102.0%),[1]; 0 time,99.7%
same,Purity (HPLC) NLT 99.0%,[1]; 0 time,100.0%
same,Total impurities NMT 1.00%,[1]; 0 time,0.01%
same,"Water content (KF), NMT 1.00%",[1]; 0 time,0.09%
same,AICA NMT 0.15%,[1]; 1 month,0.01%
same,Appearance (White to off-white powder),[1]; 1 month,White
same,Assay (HPLC) (98.0-102.0%),[1]; 1 month,98.6%
same,Purity (HPLC) NLT 99.0%,[1]; 1 month,100.0%
same,Total impurities NMT 1.00%,[1]; 1 month,0.01%
same,"Water content (KF), NMT 1.00%",[1]; 1 month,0.07%
same,AICA NMT 0.15%,[1]; 2 months,0.01%
same,Appearance (White to off-white powder),[1]; 2 months,White
same,Assay (HPLC) (98.0-102.0%),[1]; 2 months,99.3%
same,Purity (HPLC) NLT 99.0%,[1]; 2 months,100.0%
same,Total impurities NMT 1.00%,[1]; 2 months,0.01%
same,"Water content (KF), NMT 1.00%",[1]; 2 months,0.04%
same,AICA NMT 0.15%,[1]; 3 months,0.09%
same,Appearance (White to off-white powder),[1]; 3 months,White
same,Assay (HPLC) (98.0-102.0%),[1]; 3 months,99.6%
same,Purity (HPLC) NLT 99.0%,[1]; 3 months,99.7%
same,Total impurities NMT 1.00%,[1]; 3 months,0.09%
same,"Water content (KF), NMT 1.00%",[1]; 3 months,0.09%
same,Appearance (White to off-white powder),[1]; 6 months,White
same,Assay (HPLC) (98.0-102.0%),[1]; 6 months,99.9%
same,Purity (HPLC) NLT 99.0%,[1]; 6 months,100.0%
same,"Water content (KF), NMT 1.00%",[1]; 6 months,0.12%
same,AICA NMT 0.15%,[1]; 9 months,0.01%
same,Appearance (White to off-white powder),[1]; 9 months,White
same,Assay (HPLC) (98.0-102.0%),[1]; 9 months,100.8%
same,Purity (HPLC) NLT 99.0%,[1]; 9 months,100.0%
same,Total impurities NMT 1.00%,[1]; 9 months,0.01%
same,"Water content (KF), NMT 1.00%",[1]; 9 months,0.15%
same,AICA NMT 0.15%,[1]; 12 months,0.02%
same,Appearance (White to off-white powder),[1]; 12 months,Light pink
same,Assay (HPLC) (98.0-102.0%),[1]; 12 months,99.8%
same,Purity (HPLC) NLT 99.0%,[1]; 12 months,100.0%
same,Total impurities NMT 1.00%,[1]; 12 months,0.02%
same,"Water content (KF), NMT 1.00%",[1]; 12 months,0.06%
same,Appearance (White to off-white powder),[1]; 18 months,White
same,Assay (HPLC) (98.0-102.0%),[1]; 18 months,99.8%
same,Purity (HPLC) NLT 99.0%,[1]; 18 months,100.0%
same,"Water content (KF), NMT 1.00%",[1]; 18 months,0.16%
same,AICA NMT 0.15%,[2]; 0 time,0.06%
same,Appearance (White to off-white powder),[2]; 0 time,White
same,Assay (HPLC) (98.0-102.0%),[2]; 0 time,101.7%
same,Individual unknown impurity NMT 0.10%,[2]; 0 time,0.01%
same,Purity (HPLC) NLT 99.0%,[2]; 0 time,99.9%
same,Total impurities NMT 1.00%,[2]; 0 time,0.08%
same,"Water content (KF), NMT 1.00%",[2]; 0 time,0.17%
same,AICA NMT 0.15%,[2]; 1 month,0.02%
same,Appearance (White to off-white powder),[2]; 1 month,White
same,Assay (HPLC) (98.0-102.0%),[2]; 1 month,101.4%
same,Individual unknown impurity NMT 0.10%,[2]; 1 month,0.02%
same,Purity (HPLC) NLT 99.0%,[2]; 1 month,100.0%
same,Total impurities NMT 1.00%,[2]; 1 month,0.03%
same,"Water content (KF), NMT 1.00%",[2]; 1 month,0.36%
same,AICA NMT 0.15%,[2]; 2 months,0.04%
same,Appearance (White to off-white powder),[2]; 2 months,White
same,Assay (HPLC) (98.0-102.0%),[2]; 2 months,99.8%
same,Individual unknown impurity NMT 0.10%,[2]; 2 months,0.01%
same,Purity (HPLC) NLT 99.0%,[2]; 2 months,99.9%
same,Total impurities NMT 1.00%,[2]; 2 months,0.06%
same,"Water content (KF), NMT 1.00%",[2]; 2 months,0.20%
same,AICA NMT 0.15%,[2]; 3 months,0.01%
same,Appearance (White to off-white powder),[2]; 3 months,Light beige
same,Assay (HPLC) (98.0-102.0%),[2]; 3 months,99.6%
same,Individual unknown impurity NMT 0.10%,[2]; 3 months,0.01%
same,Purity (HPLC) NLT 99.0%,[2]; 3 months,100.0%
same,Total impurities NMT 1.00%,[2]; 3 months,0.03%
same,"Water content (KF), NMT 1.00%",[2]; 3 months,0.14%
same,AICA NMT 0.15%,[2]; 6 months,0.01%
same,Appearance (White to off-white powder),[2]; 6 months,Light beige
same,Assay (HPLC) (98.0-102.0%),[2]; 6 months,99.7%
same,Individual unknown impurity NMT 0.10%,[2]; 6 months,0.01%
same,Purity (HPLC) NLT 99.0%,[2]; 6 months,99.9%
same,Total impurities NMT 1.00%,[2]; 6 months,0.05%
same,"Water content (KF), NMT 1.00%",[2]; 6 months,0.34%
same,AICA NMT 0.15%,[2]; 9 months,0.04%
same,Appearance (White to off-white powder),[2]; 9 months,Light beige
same,Assay (HPLC) (98.0-102.0%),[2]; 9 months,98.5%
same,Individual unknown impurity NMT 0.10%,[2]; 9 months,0.01%
same,Purity (HPLC) NLT 99.0%,[2]; 9 months,99.9%
same,Total impurities NMT 1.00%,[2]; 9 months,0.05%
same,"Water content (KF), NMT 1.00%",[2]; 9 months,0.21%
same,AICA NMT 0.15%,[2]; 12 months,0.06%
same,Appearance (White to off-white powder),[2]; 12 months,Light beige
same,Assay (HPLC) (98.0-102.0%),[2]; 12 months,99.2%
same,Individual unknown impurity NMT 0.10%,[2]; 12 months,0.02%
same,Purity (HPLC) NLT 99.0%,[2]; 12 months,99.8%
same,Total impurities NMT 1.00%,[2]; 12 months,0.09%
same,"Water content (KF), NMT 1.00%",[2]; 12 months,0.11%
same,Long-term stability (in words),"[2]; prepared by conventional method, temperature 2-8° C.",stable
same,AICA NMT 0.15%,[3]; 0 time,0.06%
same,Appearance (White to off-white powder),[3]; 0 time,White
same,Assay (HPLC) (98.0-102.0%),[3]; 0 time,101.7%
same,Individual unknown impurity NMT 0.10%,[3]; 0 time,0.01%
same,Purity (HPLC) NLT 99.0%,[3]; 0 time,99.9%
same,Total impurities NMT 1.00%,[3]; 0 time,0.08%
same,"Water content (KF), NMT 1.00%",[3]; 0 time,0.17%
same,AICA NMT 0.15%,[3]; 1 month,0.24%
same,Appearance (White to off-white powder),[3]; 1 month,Off-white
same,Assay (HPLC) (98.0-102.0%),[3]; 1 month,101.7%
same,Individual unknown impurity NMT 0.10%,[3]; 1 month,0.01%
same,Purity (HPLC) NLT 99.0%,[3]; 1 month,99.8%
same,Total impurities NMT 1.00%,[3]; 1 month,0.25%
same,"Water content (KF), NMT 1.00%",[3]; 1 month,0.25%
same,AICA NMT 0.15%,[3]; 2 months,0.64%
same,Appearance (White to off-white powder),[3]; 2 months,Off-white
same,Assay (HPLC) (98.0-102.0%),[3]; 2 months,99.4%
same,Individual unknown impurity NMT 0.10%,[3]; 2 months,0.01%
same,Purity (HPLC) NLT 99.0%,[3]; 2 months,99.3%
same,Total impurities NMT 1.00%,[3]; 2 months,0.67%
same,"Water content (KF), NMT 1.00%",[3]; 2 months,0.24%
same,Stability (in words),"[3]; prepared by conventional method, temperature 25 degree ° C.",easily to degrade to out of specification
same,Time stable,"[4]; prepared by the process of the present invention, temperature 25 degree ° C.",at least 18 months
same,AICA NMT 0.15%,[4]; 0 time,0.01%
same,Appearance (White to off-white powder),[4]; 0 time,White
same,Assay (HPLC) (98.0-102.0%),[4]; 0 time,99.7%
same,Purity (HPLC) NLT 99.0%,[4]; 0 time,100.0%
same,Total impurities NMT 1.00%,[4]; 0 time,0.01%
same,"Water content (KF), NMT 1.00%",[4]; 0 time,0.09%
same,AICA NMT 0.15%,[4]; 1 month,0.01%
same,Appearance (White to off-white powder),[4]; 1 month,White
same,Assay (HPLC) (98.0-102.0%),[4]; 1 month,100.0%
same,Purity (HPLC) NLT 99.0%,[4]; 1 month,100.0%
same,Total impurities NMT 1.00%,[4]; 1 month,0.01%
same,"Water content (KF), NMT 1.00%",[4]; 1 month,0.12%
same,AICA NMT 0.15%,[4]; 2 months,0.01%
same,Appearance (White to off-white powder),[4]; 2 months,White
same,Assay (HPLC) (98.0-102.0%),[4]; 2 months,99.4%
same,Purity (HPLC) NLT 99.0%,[4]; 2 months,100.0%
same,Total impurities NMT 1.00%,[4]; 2 months,0.01%
same,"Water content (KF), NMT 1.00%",[4]; 2 months,0.04%
same,AHX NMT 0.15%,[4]; 3 months,0.01%
same,AICA NMT 0.15%,[4]; 3 months,0.11%
same,Appearance (White to off-white powder),[4]; 3 months,White
same,Assay (HPLC) (98.0-102.0%),[4]; 3 months,99.4%
same,Purity (HPLC) NLT 99.0%,[4]; 3 months,99.7%
same,Total impurities NMT 1.00%,[4]; 3 months,0.11%
same,"Water content (KF), NMT 1.00%",[4]; 3 months,0.11%
same,Appearance (White to off-white powder),[4]; 6 months,White
same,Assay (HPLC) (98.0-102.0%),[4]; 6 months,99.3%
same,Purity (HPLC) NLT 99.0%,[4]; 6 months,100.0%
same,"Water content (KF), NMT 1.00%",[4]; 6 months,0.13%
same,AICA NMT 0.15%,[4]; 9 months,0.02%
same,Appearance (White to off-white powder),[4]; 9 months,White
same,Assay (HPLC) (98.0-102.0%),[4]; 9 months,100.8%
same,Purity (HPLC) NLT 99.0%,[4]; 9 months,99.9%
same,Total impurities NMT 1.00%,[4]; 9 months,0.02%
same,"Water content (KF), NMT 1.00%",[4]; 9 months,0.17%
same,AHX NMT 0.15%,[4]; 12 months,0.01%
same,AICA NMT 0.15%,[4]; 12 months,0.02%
same,Appearance (White to off-white powder),[4]; 12 months,Light pink
same,Assay (HPLC) (98.0-102.0%),[4]; 12 months,99.8%
same,Individual unknown impurity NMT 0.10%,[4]; 12 months,0.01%
same,Purity (HPLC) NLT 99.0%,[4]; 12 months,99.9%
same,Total impurities NMT 1.00%,[4]; 12 months,0.04%
same,"Water content (KF), NMT 1.00%",[4]; 12 months,0.04%
same,AICA NMT 0.15%,[4]; 18 months,0.01%
same,Appearance (White to off-white powder),[4]; 18 months,White
same,Assay (HPLC) (98.0-102.0%),[4]; 18 months,99.4%
same,Individual unknown impurity NMT 0.10%,[4]; 18 months,0.01%
same,Purity (HPLC) NLT 99.0%,[4]; 18 months,100.0%
same,Total impurities NMT 1.00%,[4]; 18 months,0.02%
same,"Water content (KF), NMT 1.00%",[4]; 18 months,0.07%

# Reference: patent US20120108811A1, “PROCESS FOR PREPARING TEMOZOLOMIDE” (FORMOSA LABORATORIES INC., priority 2010, published 2012)
